Patent publication US20220169639A1 (priority 2018, published 2022)

test system: HBeAg (surrogate marker for cccDNA) in HepDES19 cells; test: Engineered HepDES19 primary screen assay (HBeAg ELISA); type: cell-based, HBV; details: Hepatitis B virus, 120 h, HBeAg in culture supernatant, 5 days incubation, read-out: IC50 (HepDES19 primary screen assay, inhibition of extracellular HBeAg level)
Excerpt: The assay was employed to screen for cccDNA inhibitors. HepDES19 is a cccDNA-producing cell line. In this cell line, HBeAg in the cell culture supernatant as surrogate marker, as HBeAg production depends on cccDNA level and activity. HepDES19 is an engineered cell line which contains a 1.1 unit length HBV genome, and pgRNA transcription from the transgene is controlled by Tetracycline (Tet). In the absence of Tet, pgRNA transcription will be induced, but HBV e antigen (HBeAg) could not be produced from this pgRNA due to very short leader sequence before the HBeAg start codon and the start codon is disrupted. Only after cccDNA is formed, the missing leader sequence and start codon mutation would be restored from the 3′-terminal redundancy of pgRNA, and then HBeAg could be synthesized. Therefore, HBeAg could be used as a surrogate marker for cccDNA (Zhou, T. et al., Antiviral Res. (2006), 72(2), 116-124; Guo, H. et al., J. Virol. (2007), 81(22), 12472-12484).
HepDES19 cells were seeded at 2×10^6 cells per T150 flask and cultured with the culture medium (Dulbecco's Modified Eagle Medium: Nutrient Mixture F-12 [DMEM-F12, Gibco Cat. 11320-82], 10% Fetal Bovine Serum [FBS, Clontech Cat. 631101], 0.1 mM Non-Essential Amino Acids Solution [NEAA, Gibco Cat. 11140-050], 50 μg/mL Penicillin-Streptomycin [PS, Invitrogen Cat. 15140-163], 500 μg/mL Geneticin [G418, Invitrogen Cat. 10131-027]) containing 3 μg/mL Tet (Sigma, Cat. 87128) for 5 days. Cells were then seeded at 4×10^6 cells per T150 in the same culture medium as described above in the absence of Tet for 8 days. Cells were then harvested and frozen at density of 2×10^6 cells per mL. For compound testing, the frozen cells were thawed and seeded into 96-well plates at a density of 6×10^4 cells per well. At 24 hours after seeding, half log serial dilutions of compounds made with Dimethyl sulfoxide (DMSO, Sigma, Cat. D2650) were further diluted with the same culture medium as described above before they were added to the cells to reach desired final compound concentrations and 1% DMSO concentration. Plates were then incubated at 37° C. for another 5 days before measurement of HBeAg level and cell viability. Intracellular HBeAg level were measured with enzyme-linked immunosorbent assay (ELISA) kit (Shanghai Kehua Diagnostic Medical Products Co., Ltd). Cell viability was assessed using Cell Counting Kit-8 (DonJindo, Cat. CK04-20). IC50 values were derived from the dose-response curve using 4 parameter logistic curve fit method.
The compounds of the present invention were tested for their capacity to inhibit extracellular HBeAg level as described herein.

`CS(=O)(=O)N1CCN(CCCOc2cc(C(F)(F)F)ccc2-c2cc(=O)c3cccc(Cl)c3o2)CC1` [Example 081, 8-chloro-2-[2-[3-(4-methylsulfonylpiperazin-1-yl)propoxy]-4-(trifluoromethyl)phenyl]chromen-4-one] and `CS(=O)(=O)NC(=O)[C@@H]1CCN(CCCOc2cc(C(F)(F)F)ccc2-c2cc(=O)c3cccc(Cl)c3o2)C1` [Example 065, (3R)-1-[3-[2-(8-chloro-4-oxo-chromen-2-yl)-5-(trifluoromethyl)phenoxy]propyl]-N-methylsulfonyl-pyrrolidine-3-carboxamide] are within 1.5-fold of each other in IC50: 7110 nM for the first, 7210 nM for the second.

Compared with `Cc1ccc(-c2cc(=O)c3cccc(Cl)c3o2)c(OCCNC2CC(C(=O)O)C2)c1` (stereo not drawn) [Example 053, 3-[2-[2-(8-chloro-4-oxo-chromen-2-yl)-5-methyl-phenoxy]ethylamino]cyclobutanecarboxylic acid], `O=C(O)C1CC(NCCOc2cc(C(F)(F)F)ccc2-c2cc(=O)c3cccc(Cl)c3o2)C1` (stereo not drawn) [Example 038, 3-[2-[2-(8-chloro-4-oxo-chromen-2-yl)-5-(trifluoromethyl)phenoxy]ethylamino]cyclobutanecarboxylic acid] is 72-fold higher in IC50: 100 nM for the first, 7240 nM for the second.

`CS(=O)(=O)CCNCCCOc1cc(C(F)(F)F)ccc1-c1cc(=O)c2cccc(Cl)c2o1` [Example 079, 8-chloro-2-[2-[3-(2-methylsulfonylethylamino)propoxy]-4-(trifluoromethyl)phenyl]chromen-4-one] and `NS(=O)(=O)NCCOc1cc(C(F)(F)F)ccc1-c1cc(=O)c2cccc(Cl)c2o1` [Example 159, 8-chloro-4-oxo-2-[2-[2-(sulfamoylamino)ethoxy]-4-(trifluoromethyl)phenyl]chromene] are within 1.5-fold of each other in IC50: 780 nM for the first, 830 nM for the second.

Going from `O=C(O)[C@@H]1C[C@H](NCCCOc2cc(Br)ccc2-c2cc(=O)c3cccc(Cl)c3o2)CCO1` (relative stereo) [Example 060, cis-4-[3-[5-bromo-2-(8-chloro-4-oxo-chromen-2-yl)phenoxy]propylamino]tetrahydropyran-2-carboxylic acid] to `CS(=O)(=O)NC(=O)C1CCCN1CCOc1cc(Br)ccc1-c1cc(=O)c2cccc(Cl)c2o1` (stereo not drawn) [Example 074, 1-[2-[5-bromo-2-(8-chloro-4-oxo-chromen-2-yl)phenoxy]ethyl]-N-methylsulfonyl-pyrrolidine-2-carboxamide], the IC50 falls from 4870 nM to 1030 nM (4.7-fold).

First: O=C(O)C1CCN(CCOc2ccccc2-c2cc(=O)c3cc(F)cc(Cl)c3o2)C1 (stereo not drawn) [Example 043, 1-[2-[2-(8-chloro-6-fluoro-4-oxo-chromen-2-yl)phenoxy]ethyl]pyrrolidine-3-carboxylic acid]
Second: O=C(O)C1CCN(CCOc2ccccc2-c2cc(=O)c3cccc(Cl)c3o2)C1 (stereo not drawn) [Example 031, 1-[2-[2-(8-chloro-4-oxo-chromen-2-yl)phenoxy]ethyl]pyrrolidine-3-carboxylic acid]
The IC50 of the first is 8.4-fold higher: 1420 nM for the first, 170 nM for the second. The second is the more potent here.

Going from `COc1cc(C)cc(OCCNC(=O)C(=O)O)c1-c1cc(=O)c2cccc(Cl)c2o1` [Example 118] to `Cc1cc(F)c(-c2cc(=O)c3cccc(Cl)c3o2)c(OCCNC(=O)C(=O)O)c1` [Example 112], the IC50 falls from 1980 nM to 490 nM (4-fold). The second is the more potent here.

First: Cc1ccc(-c2cc(=O)c3cccc(Cl)c3o2)c(OCCN2CCN(C)C2=O)c1 [Example 092, 1-[2-[2-(8-chloro-4-oxo-chromen-2-yl)-5-methyl-phenoxy]ethyl]-3-methyl-imidazolidin-2-one]
Second: Cc1ccc(-c2cc(=O)c3cccc(Cl)c3o2)c(OCCN2CCNC2=O)c1 [Example 091, 1-[2-[2-(8-chloro-4-oxo-chromen-2-yl)-5-methyl-phenoxy]ethyl]imidazolidin-2-one]
The IC50 of the first is 13-fold lower: 220 nM for the first, 2830 nM for the second. The first is the more potent here.

Compared with `CCOC(=O)C(=O)NCCCOc1cc(C)ccc1-c1cc(=O)c2cccc(Cl)c2o1` [Example 095, ethyl 2-[3-[2-(8-chloro-4-oxo-chromen-2-yl)-5-methyl-phenoxy]propylamino]-2-oxo-acetate], `Cc1ccc(-c2cc(=O)c3cccc(Cl)c3o2)c(OCCNC(=O)N[C@@H](C)C(=O)O)c1` [Example 151, (2S)-2-[2-[2-(8-chloro-4-oxo-chromen-2-yl)-5-methyl-phenoxy]ethylcarbamoylamino]propanoic acid] is 15-fold lower in IC50: 9300 nM for the first, 630 nM for the second. The second is the more potent here.

`Cc1cc(-c2cc(=O)c3cccc(Cl)c3o2)c(OCCN2CCC[C@H]2C(=O)O)cc1Cl` [Example 045] and `Cc1cc(-c2cc(=O)c3cccc(Cl)c3o2)c(OCCN2CC(C(=O)O)C2)cc1Cl` [Example 061, 1-[2-[5-chloro-2-(8-chloro-4-oxo-chromen-2-yl)-4-methyl-phenoxy]ethyl]azetidine-3-carboxylic acid] are within 1.5-fold of each other in IC50: 6500 nM for the first, 5710 nM for the second.

Going from `O=C(O)[C@H]1CCCN1CCOc1ccccc1-c1cc(=O)c2cccc(Cl)c2o1` [Example 030, (2R)-1-[2-[2-(8-chloro-4-oxo-chromen-2-yl)phenoxy]ethyl]pyrrolidine-2-carboxylic acid] to `Cc1ccc(-c2cc(=O)c3cccc(Cl)c3o2)c(OCCN(C(=O)C(=O)O)C2CC2)c1` [Example 135, 2-[2-[2-(8-chloro-4-oxo-chromen-2-yl)-5-methyl-phenoxy]ethyl-cyclopropyl-amino]-2-oxo-acetic acid], the IC50 falls from 1330 nM to 210 nM (6.3-fold). The second is the more potent here.

Compared with `CS(=N)(=O)C1CCN(CCOc2cc(C(F)(F)F)ccc2-c2cc(=O)c3cccc(Cl)c3o2)CC1` (stereo not drawn) [Example 094, 8-chloro-2-[2-[2-[4-(methylsulfonimidoyl)-1-piperidyl]ethoxy]-4-(trifluoromethyl)phenyl]chromen-4-one], `CS(=O)(=O)NC(=O)[C@@H]1CCN(CCOc2cc(C(F)(F)F)ccc2-c2cc(=O)c3cccc(Cl)c3o2)C1` [Example 070, (3R)-1-[2-[2-(8-chloro-4-oxo-chromen-2-yl)-5-(trifluoromethyl)phenoxy]ethyl]-N-methylsulfonyl-pyrrolidine-3-carboxamide] is 9.7-fold lower in IC50: 9790 nM for the first, 1010 nM for the second.

Going from `CC(C)[C@@H]1NC(=O)N(CCOc2cc(C(F)(F)F)ccc2-c2cc(=O)c3cccc(Cl)c3o2)C1=O` [Example 153] to `Cc1ccc(-c2cc(=O)c3cccc(Cl)c3o2)c(OCCN2C(=O)N[C@@H](C(C)C)C2=O)c1` [Example 152], the IC50 falls from 830 nM to 480 nM (1.7-fold). The second is the more potent here.

Going from `O=C(O)CN(CCCOc1cc(C(F)(F)F)ccc1-c1cc(=O)c2cccc(Cl)c2o1)S(=O)(=O)C1CC1` [Example 145] to `CN(CCCOc1cc(C(F)(F)F)ccc1-c1cc(=O)c2cccc(Cl)c2o1)CC(=O)O` [Example 134, 2-[3-[2-(8-chloro-4-oxo-chromen-2-yl)-5-(trifluoromethyl)phenoxy]propyl-methyl-amino]acetic acid], the IC50 falls from 14300 nM to 8170 nM (1.8-fold). The second is the more potent here.

First: O=C(O)CN(CCCOc1cc(C(F)(F)F)ccc1-c1cc(=O)c2cccc(Cl)c2o1)CC(=O)O [Example 140]
Second: O=C(O)CCNCCOc1cc(C(F)(F)F)ccc1-c1cc(=O)c2cccc(Cl)c2o1 [Example 124]
The IC50 of the first is 31-fold lower: 190 nM for the first, 5880 nM for the second. The first is the more potent here.

Going from `CC(C)[C@H](NCCOc1cc(C(F)(F)F)ccc1-c1cc(=O)c2cccc(Cl)c2o1)C(=O)O` [Example 037, (2S)-2-[2-[2-(8-chloro-4-oxo-chromen-2-yl)-5-(trifluoromethyl)phenoxy]ethylamino]-3-methyl-butanoic acid] to `CC(NCCOc1cc(C(F)(F)F)ccc1-c1cc(=O)c2cccc(Cl)c2o1)C(N)=O` (stereo not drawn) [Example 168, 2-[2-[2-(8-chloro-4-oxo-chromen-2-yl)-5-(trifluoromethyl)phenoxy]ethylamino]propanamide], the IC50 falls from 4120 nM to 1140 nM (3.6-fold). The second is the more potent here.

`O=C(O)C(=O)NCC1(COc2cc(C(F)(F)F)ccc2-c2cc(=O)c3cccc(Cl)c3o2)COC1` [Example 010, 2-[[3-[[2-(8-chloro-4-oxo-chromen-2-yl)-5-(trifluoromethyl)phenoxy]methyl]oxetan-3-yl]methylamino]-2-oxo-acetic acid] and `O=C(O)CC1CCN(CCCOc2cc(C(F)(F)F)ccc2-c2cc(=O)c3cccc(Cl)c3o2)C1` (stereo not drawn) [Example 008, 2-[1-[3-[2-(8-chloro-4-oxo-chromen-2-yl)-5-(trifluoromethyl)phenoxy]propyl]pyrrolidin-3-yl]acetic acid] are within 1.5-fold of each other in IC50: 220 nM for the first, 170 nM for the second.

In the case of `CS(=O)(=O)NC(=O)[C@H]1CCN(CCOc2cc(C(F)(F)F)ccc2-c2cc(=O)c3cccc(Cl)c3o2)C1` [Example 071, (3S)-1-[2-[2-(8-chloro-4-oxo-chromen-2-yl)-5-(trifluoromethyl)phenoxy]ethyl]-N-methylsulfonyl-pyrrolidine-3-carboxamide], the IC50 is reported as 1030 nM.
